Values of other authors, collected in patent US20110052580A1, “USE OF PICOPLATIN AND BEVACIZUMAB TO TREAT COLORECTAL CANCER” (Poniard Pharmaceuticals, Inc., priority 2008, published 2011).

Legend:
[1] = test system: metastatic colorectal cancer (MCRC); conditions: single agent therapy
[2] = test system: xenotransplant models of colon cancer; conditions: mouse, in vivo
[3] = test system: human vascular endothelial growth factor (VEGF)
human vascular endothelial growth factor (VEGF), sequence (P15692 207-311 limits assumed): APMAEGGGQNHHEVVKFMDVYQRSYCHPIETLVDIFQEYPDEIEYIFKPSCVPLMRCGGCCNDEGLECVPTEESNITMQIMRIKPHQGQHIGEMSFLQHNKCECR

| Compound | Median survival [1] | Progression-free survival, median [1] | Response rate [1] | Effect on metastatic disease progression [2] | Effect on microvascular growth [2] | Binding to and inhibition of VEGF [3] |
| --- | --- | --- | --- | --- | --- | --- |
| O=C1[O][Pt]2([NH][C@@H]3CCCC[C@H]3[NH]2)[O]C1=O [oxaliplatin] | ~14.5 months | 4.0 months | 12% | – | – | – |
| bevacizumab: recombinant humanized monoclonal IgGl antibody that binds to and inhibits human vascular endothelial growth factor (VEGF) | – | – | – | inhibition of metastatic disease progression | reduction of microvascular growth | binds to and inhibits the biologic activity of human vascular endothelial growth factor (VEGF) |
| CCc1c2c(nc3ccc(OC(=O)N4CCC(N5CCCCC5)CC4)cc13)-c1cc3c(c(=O)n1C2)COC(=O)[C@]3(O)CC [irinotecan] | ~12 months | 4.3 months | 18% | – | – | – |
